The text below walks through data of patent publication US9056876B2, “Substituted 1H-pyrazolo[3′,4′,4,5]thieno[2,3-b]pyridin-3-amine analogs as positive allosteric modulators of the muscarinic acetylcholine receptor M4” (VANDERBILT UNIVERSITY, priority 2011, dated 2015).

The target of the test is T1, mAChR M4 (UniProt P08173).
T1 construct: hM1 and hM4 cDNAs were purchased from Missouri S&T cDNA Resource
T1 sequence (P08173 1-479): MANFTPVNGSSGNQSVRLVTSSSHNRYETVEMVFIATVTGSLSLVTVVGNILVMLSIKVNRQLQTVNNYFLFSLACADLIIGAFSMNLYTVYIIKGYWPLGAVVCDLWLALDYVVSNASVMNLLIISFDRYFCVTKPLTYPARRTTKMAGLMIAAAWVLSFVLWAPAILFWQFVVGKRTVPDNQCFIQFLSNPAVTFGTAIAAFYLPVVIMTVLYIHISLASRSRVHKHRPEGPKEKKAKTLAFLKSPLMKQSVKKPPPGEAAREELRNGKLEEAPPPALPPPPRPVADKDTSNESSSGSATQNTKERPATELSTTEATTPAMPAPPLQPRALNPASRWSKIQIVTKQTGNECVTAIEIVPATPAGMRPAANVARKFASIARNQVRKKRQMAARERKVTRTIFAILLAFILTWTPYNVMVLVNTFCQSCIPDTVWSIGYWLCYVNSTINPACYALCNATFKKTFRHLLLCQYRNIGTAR
Put plainly: mAChR M4 cell-based functional assay (calcium mobilization, Fluo-4, FDSS). Particulars: for pEC50: positive allosteric modulator activity, EC20 acetylcholine response; for pEC50 / EC50: CHO-K1 cells; for EC50: positive allosteric modulator activity: concentration-dependent increase in the EC20 acetylcholine response, >10 μM estimated for low potency (no plateau); for Emax (%)*: % ACh maximum at 30 μM. Put shortly:
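Compound responses (11-point, 1:3 series) were followed as calcium fluorescence ratio on FDSS in Gqi5-coupled M4 CHO-K1 cells (human or rat) loaded with Fluo-4. Acetylcholine followed at EC20 (144 s) then EC80 (230 s). EC50/Emax from four-parameter logistic fits of direct, EC20-potentiating or EC80-inhibiting effects.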

What is called pEC50 is the negative decadic logarithm of the EC50, by convention in mol/L. As a reminder, the EC50 is the concentration that produces a half-maximal response.

As for `Cc1ccnc2sc3c(NC(=O)c4ccccc4)nn(C)c3c12` [Compound 159, N-(1,8-dimethyl-1H-pyrazolo[3′,4′:4,5]thieno[2,3-b]pyridin-3-yl)benzamide], the pEC50 is reported as <5.00 and the EC50 is > 10 µM.

For `Cc1nc2sc3c(Nc4ccncc4)nn(C)c3c2c(C)c1Cl` [Compound 148, 7-chloro-1,6,8-trimethyl-N-(pyridin-4-yl)-1H-pyrazolo[3′,4′:4,5]thieno[2,3-b]pyridin-3-amine], the pEC50 is recorded as <5.00 and the EC50 is > 10 µM.

For the molecule `Cc1nc2sc3c(NCCC(C)C)n[nH]c3c2c(C)c1Cl` [Compound 140, 7-chloro-N-isopentyl-6,8-dimethyl-1H-pyrazolo[3′,4′:4,5]thieno[2,3-b]pyridin-3-amine], the pEC50 is given as <5.00 and the EC50 was > 10 µM.

On to `Cc1cc(C)c2c(n1)sc1c(NCc3ccoc3)nn(C)c12` [Compound 81, N-(furan-3-ylmethyl)-1,6,8-trimethyl-1H-pyrazolo[3′,4′:4,5]thieno[2,3-b]pyridin-3-amine], for which the “Emax (%)*” value is 77%, the pEC50 is on record as 7.16 and the EC50 was 0.069 µM.

Turning to `Cc1cc(C)c2c(n1)sc1c(NCc3ccccc3F)nn(C)c12` [Compound 57, N-(2-fluorobenzyl)-1,6,8-trimethyl-1H-pyrazolo[3′,4′:4,5]thieno[2,3-b]pyridin-3-amine], the “Emax (%)*” value turned out to be 70%, the pEC50 was 6.72 and the EC50 is 0.19 µM.

As for `Cc1cc(C)c2c(n1)sc1c(NCc3cccnc3)nn(C)c12` [Compound 76, 1,6,8-trimethyl-N-(pyridin-3-ylmethyl)-1H-pyrazolo[3′,4′:4,5]thieno[2,3-b]pyridin-3-amine], the “Emax (%)*” value is listed as 68%, the pEC50 came out at 6.66 and the EC50 is 0.22 µM.

As for `Cc1cc(C)c2c(n1)sc1c(NCc3nccn3C)nn(C)c12` [Compound 163, 1,6,8-trimethyl-N-((1-methyl-1H-imidazol-2-yl)methyl)-1H-pyrazolo[3′,4′:4,5]thieno[2,3-b]pyridin-3-amine], the pEC50 is recorded as <5.00 and the EC50 is > 10 µM.

As to `Cc1cc(C)c2c(n1)sc1c(NCC3CCCN3C(=O)OC(C)(C)C)nn(C)c12` (centres unmarked) [Compound 85, tert-butyl 2-(((1,6,8-trimethyl-1H-pyrazolo[3′,4′:4,5]thieno[2,3-b]pyridin-3-yl)amino)methyl)pyrrolidine-1-carboxylate], the “Emax (%)*” value is given as 37%, the pEC50 is on record as 5.48 and the EC50 is 3.3 µM.

As to `Cc1ccc2c(n1)sc1c(NCC3CC3)n[nH]c12` [Compound 43, N-(cyclopropylmethyl)-6-methyl-1H-pyrazolo[3′,4′:4,5]thieno[2,3-b]pyridin-3-amine], the “Emax (%)*” value is 64%, the negative-log EC50 (pEC50) is listed as 5.35 and the EC50 was 4.5 µM.

As for `Cc1cc(C)c2c(n1)sc1c(NC(C)C)nn(CCO)c12` [Compound 112, 2-(3-(isopropylamino)-6,8-dimethyl-1H-pyrazolo[3′,4′:4,5]thieno[2,3-b]pyridin-1-yl)ethanol], the “Emax (%)*” value is recorded as 71%, the pEC50 was 5.68 and the EC50 is 2.1 µM.

Consider `CCCCC(=O)Nc1n[nH]c2c1sc1nc(C)cc(C)c12` [Compound 129, N-(6,8-dimethyl-1H-pyrazolo[3′,4′:4,5]thieno[2,3-b]pyridin-3-yl)pentanamide], for which the pEC50 is on record as <5.00 and the EC50 was > 10 µM.

In the case of `Cc1cc(C)c2c(n1)sc1c(NC3CCC(C(F)(F)F)CC3)n[nH]c12` (centres unmarked) [Compound 137, 6,8-dimethyl-N-(4-(trifluoromethyl)cyclohexyl)-1H-pyrazolo[3′,4′:4,5]thieno[2,3-b]pyridin-3-amine], the pEC50 is <5.00 and the EC50 was > 10 µM.

Consider `Cc1cc(C)c2c(n1)sc1c(NCc3nccs3)nn(C)c12` [Compound 100, 1,6,8-trimethyl-N-(thiazol-2-ylmethyl)-1H-pyrazolo[3′,4′:4,5]thieno[2,3-b]pyridin-3-amine], for which the “Emax (%)*” value came out at 47%, the pEC50 is recorded as 6.37 and the EC50 was 0.43 µM.

`Cc1cc(C)c2c(n1)sc1c(NC(=O)c3ccc(F)cc3)nn(C)c12` [Compound 154, 4-fluoro-N-(1,6,8-trimethyl-1H-pyrazolo[3′,4′:4,5]thieno[2,3-b]pyridin-3-yl)benzamide]: the pEC50 was <5.00 and the EC50 is > 10 µM.

`Cc1nc2sc3c(NCc4ccc(F)c(F)c4)nn(C)c3c2c(C)c1Cl` [Compound 27, 7-chloro-N-(3,4-difluorobenzyl)-1,6,8-trimethyl-1H-pyrazolo[3′,4′:4,5]thieno[2,3-b]pyridin-3-amine]: the “Emax (%)*” value amounted to 46%, the pEC50 is <5.00 and the EC50 was > 10 µM.

Turning to `Cc1cc(C)c2c(n1)sc1c(NCc3ccccc3)n[nH]c12` [Compound 5, N-benzyl-6,8-dimethyl-1H-pyrazolo[3′,4′:4,5]thieno[2,3-b]pyridin-3-amine], the “Emax (%)*” value is 58%, the pEC50 is 5.97 and the EC50 was 1.07 µM.

With `Cc1cc(C)c2c(n1)sc1c(NCCC(C)C)nn(C)c12` [Compound 32, N-isopentyl-1,6,8-trimethyl-1H-pyrazolo[3′,4′:4,5]thieno[2,3-b]pyridin-3-amine], the “Emax (%)*” value is 81%, the pEC50 was 6.72 and the EC50 was 0.19 µM.

With `Cc1cc(C)c2c(n1)sc1c(N)n[nH]c12` [Compound 1, 6,8-dimethyl-1H-pyrazolo[3′,4′:4,5]thieno[2,3-b]pyridin-3-amine], the “Emax (%)*” value was determined as 27%, the pEC50 is listed as <5.00 and the EC50 is > 10 µM.

Regarding `Cc1nc2sc3c(NCc4ccco4)n[nH]c3c2c(C)c1Cl` [Compound 20, 7-chloro-N-(furan-2-ylmethyl)-6,8-dimethyl-1H-pyrazolo[3′,4′:4,5]thieno[2,3-b]pyridin-3-amine], the “Emax (%)*” value is listed as 48%, the pEC50 was 5.85 and the EC50 was 1.4 µM.

`CCOC(=O)CNc1n[nH]c2c1sc1nc(C)cc(C)c12` [Compound 111, ethyl 2-((6,8-dimethyl-1H-pyrazolo[3′,4′:4,5]thieno[2,3-b]pyridin-3-yl)amino)acetate]: the “Emax (%)*” value was found to be 50%, the pEC50 is listed as <5.00 and the EC50 was > 10 µM.

Consider `Cc1cc(C)c2c(n1)sc1c(NCC3CCCN3)nn(C)c12` (centres unmarked) [Compound 86, 1,6,8-trimethyl-N-(pyrrolidin-2-ylmethyl)-1H-pyrazolo[3′,4′:4,5]thieno[2,3-b]pyridin-3-amine], for which the “Emax (%)*” value stood at 40%, the pEC50 came to 5.96 and the EC50 is 1.1 µM.

Turning to `Cc1cc(C)c2c(n1)sc1c(NCc3ccco3)nn(C)c12` [Compound 40, N-(furan-2-ylmethyl)-1,6,8-trimethyl-1H-pyrazolo[3′,4′:4,5]thieno[2,3-b]pyridin-3-amine], the “Emax (%)*” value is reported as 85%, the pEC50 stood at 6.96 and the EC50 is 0.11 µM.
